Assay results: ChEMBL document CHEMBL3885881, “DrugMatrix”

Species on record: Rattus norvegicus
Test: DrugMatrix - Regimen: Daily Repeat
Assay type: toxicity, organism-based, Sprague-Dawley
Design: regimen Daily Repeat, gender Male, age 6-8 weeks
Conditions: in vivo, po, route oral GAVAGE, vehicle 100 % WATER; for ABSOLUTE BASOPHIL / ABSOLUTE EOSINOPHIL / ABSOLUTE LYMPHOCYTE / ABSOLUTE MONOCYTE / ABSOLUTE SEGMENTED NEUTROPHIL / BASOPHIL / EOSINOPHIL / ERYTHROCYTE COUNT / HEMATOCRIT / HEMOGLOBIN / LEUKOCYTE COUNT / LYMPHOCYTE / MEAN CORPUSCULAR HEMOGLOBIN / MEAN CORPUSCULAR HEMOGLOBIN CONCENTRATION / MEAN CORPUSCULAR VOLUME / MONOCYTE / NEUTROPHIL / NUCLEATED RED BLOOD CELLS / PLATELET COUNT: tissue Blood; for ALANINE AMINOTRANSFERASE / ALBUMIN / ALKALINE PHOSPHATASE / ASPARTATE AMINOTRANSFERASE / BLOOD UREA NITROGEN / CARBON DIOXIDE / CHLORIDE / CHOLESTEROL / CREATINE PHOSPHOKINASE / CREATININE / GLUCOSE / LACTATE DEHYDROGENASE / LIPASE / PHOSPHORUS / POTASSIUM / SODIUM / TOTAL BILIRUBIN / TOTAL PROTEIN / URIC ACID: tissue Plasma
[1] = 0 mg/kg, 72 h, dose level Control, time 3 day
[2] = 0 mg/kg, 120 h, dose level Control, time 5 day
[3] = 1000 mg/kg, 72 h, dose level High, time 3 day
[4] = 1000 mg/kg, 120 h, dose level High, time 5 day

For `Cc1cc(NS(=O)(=O)c2ccc(N)cc2)no1` [SULFAMETHOXAZOLE], the “ABSOLUTE BASOPHIL” value [1] was 0 CELLS/uL, the “ABSOLUTE EOSINOPHIL” value [1] was 102 CELLS/uL and the “ABSOLUTE LYMPHOCYTE” value [1] was 12758 CELLS/uL. The “ABSOLUTE MONOCYTE” value [1] was 197.17 CELLS/uL, the “ABSOLUTE SEGMENTED NEUTROPHIL” value [1] was 1259.5 CELLS/uL and the BASOPHIL [1] was 0%. The EOSINOPHIL [1] was 0.83%, the “ERYTHROCYTE COUNT” value [1] was 5.3 x10E6/uL and the HEMATOCRIT [1] was 33.47%. The HEMOGLOBIN [1] was 13.12 G/DL, the “LEUKOCYTE COUNT” value [1] was 14.32 x10E3/uL and the LYMPHOCYTE [1] was 89.33%. The “MEAN CORPUSCULAR HEMOGLOBIN” value [1] was 24.8 pg, the “MEAN CORPUSCULAR HEMOGLOBIN CONCENTRATION” value [1] was 39.18 G/DL and the “MEAN CORPUSCULAR VOLUME” value [1] was 63.25 fL. The MONOCYTE [1] was 1.33%, the NEUTROPHIL [1] was 8.5% and the “NUCLEATED RED BLOOD CELLS” value [1] was 0 /100WBC. The “PLATELET COUNT” value [1] was 1313.17 x10E3/uL, the “ALANINE AMINOTRANSFERASE” value [1] was 52.67 u/L and the ALBUMIN [1] was 4.05 G/DL. For the same compound, the “ALKALINE PHOSPHATASE” value [1] was 372 u/L, the “ASPARTATE AMINOTRANSFERASE” value [1] was 82.83 u/L and the “BLOOD UREA NITROGEN” value [1] was 15 mg/dL. The “CARBON DIOXIDE” value [1] was 25.67 mmol/L, the CHLORIDE [1] was 102.17 MEQ/L and the CHOLESTEROL [1] was 68.83 mg/dL. For the same compound, the “CREATINE PHOSPHOKINASE” value [1] was 285 u/L, the CREATININE [1] was 0.18 mg/dL and the GLUCOSE [1] was 149.17 mg/dL. The “LACTATE DEHYDROGENASE” value [1] was 263.83 u/L, the LIPASE [1] was 10.17 u/L and the PHOSPHORUS [1] was 12.58 mg/dL. The POTASSIUM [1] was 6.58 MEQ/L, the SODIUM [1] was 144.22 MEQ/L and the “TOTAL BILIRUBIN” value [1] was 0.22 mg/dL. The “TOTAL PROTEIN” value [1] was 5.83 G/DL, the “URIC ACID” value [1] was 1.58 mg/dL and the “ABSOLUTE BASOPHIL” value [2] was 0 CELLS/uL. The “ABSOLUTE EOSINOPHIL” value [2] was 24 CELLS/uL, the “ABSOLUTE LYMPHOCYTE” value [2] was 11134.17 CELLS/uL and the “ABSOLUTE MONOCYTE” value [2] was 56.33 CELLS/uL. For the same compound, the “ABSOLUTE SEGMENTED NEUTROPHIL” value [2] was 1235.5 CELLS/uL, the BASOPHIL [2] was 0% and the EOSINOPHIL [2] was 0.17%. For the same compound, the “ERYTHROCYTE COUNT” value [2] was 5.68 x10E6/uL, the HEMATOCRIT [2] was 35.72% and the HEMOGLOBIN [2] was 13.93 G/DL. For the same compound, the “LEUKOCYTE COUNT” value [2] was 12.45 x10E3/uL, the LYMPHOCYTE [2] was 89.5% and the “MEAN CORPUSCULAR HEMOGLOBIN” value [2] was 24.63 pg. The “MEAN CORPUSCULAR HEMOGLOBIN CONCENTRATION” value [2] was 39.13 G/DL, the “MEAN CORPUSCULAR VOLUME” value [2] was 62.97 fL and the MONOCYTE [2] was 0.5%. For the same compound, the NEUTROPHIL [2] was 9.83%, the “NUCLEATED RED BLOOD CELLS” value [2] was 0 /100WBC and the “PLATELET COUNT” value [2] was 1204 x10E3/uL. For the same compound, the “ALANINE AMINOTRANSFERASE” value [2] was 59.5 u/L, the ALBUMIN [2] was 4.38 G/DL and the “ALKALINE PHOSPHATASE” value [2] was 415.67 u/L. The “ASPARTATE AMINOTRANSFERASE” value [2] was 91.33 u/L, the “BLOOD UREA NITROGEN” value [2] was 17 mg/dL and the “CARBON DIOXIDE” value [2] was 26.33 mmol/L. For the same compound, the CHLORIDE [2] was 104.17 MEQ/L, the CHOLESTEROL [2] was 77 mg/dL and the “CREATINE PHOSPHOKINASE” value [2] was 249.67 u/L. For the same compound, the CREATININE [2] was 0.21 mg/dL, the GLUCOSE [2] was 148.33 mg/dL and the “LACTATE DEHYDROGENASE” value [2] was 168.5 u/L. It also gave an LIPASE [2] of 10.17 u/L, a PHOSPHORUS [2] of 12.92 mg/dL and a POTASSIUM [2] of 7.09 MEQ/L. For the same compound, the SODIUM [2] was 148.37 MEQ/L, the “TOTAL BILIRUBIN” value [2] was 0.23 mg/dL and the “TOTAL PROTEIN” value [2] was 6.3 G/DL. The “URIC ACID” value [2] was 1.77 mg/dL, the “ABSOLUTE BASOPHIL” value [3] was 0 CELLS/uL and the “ABSOLUTE EOSINOPHIL” value [3] was 124.33 CELLS/uL. The “ABSOLUTE LYMPHOCYTE” value [3] was 12097 CELLS/uL, the “ABSOLUTE MONOCYTE” value [3] was 47.67 CELLS/uL and the “ABSOLUTE SEGMENTED NEUTROPHIL” value [3] was 1331 CELLS/uL. For the same compound, the BASOPHIL [3] was 0%, the EOSINOPHIL [3] was 1% and the “ERYTHROCYTE COUNT” value [3] was 5.34 x10E6/uL. The HEMATOCRIT [3] was 34.63%, the HEMOGLOBIN [3] was 13.53 G/DL and the “LEUKOCYTE COUNT” value [3] was 13.6 x10E3/uL. The LYMPHOCYTE [3] was 89%, the “MEAN CORPUSCULAR HEMOGLOBIN” value [3] was 25.37 pg and the “MEAN CORPUSCULAR HEMOGLOBIN CONCENTRATION” value [3] was 39.07 G/DL. The “MEAN CORPUSCULAR VOLUME” value [3] was 64.87 fL, the MONOCYTE [3] was 0.33% and the NEUTROPHIL [3] was 9.67%. For the same compound, the “NUCLEATED RED BLOOD CELLS” value [3] was 0 /100WBC, the “PLATELET COUNT” value [3] was 1220 x10E3/uL and the “ALANINE AMINOTRANSFERASE” value [3] was 53.33 u/L. For the same compound, the ALBUMIN [3] was 4.13 G/DL, the “ALKALINE PHOSPHATASE” value [3] was 298.33 u/L and the “ASPARTATE AMINOTRANSFERASE” value [3] was 88.67 u/L. For the same compound, the “BLOOD UREA NITROGEN” value [3] was 16 mg/dL, the “CARBON DIOXIDE” value [3] was 26 mmol/L and the CHLORIDE [3] was 101 MEQ/L. The CHOLESTEROL [3] was 79.67 mg/dL, the “CREATINE PHOSPHOKINASE” value [3] was 356.33 u/L and the CREATININE [3] was 0.17 mg/dL. The GLUCOSE [3] was 141.33 mg/dL, the “LACTATE DEHYDROGENASE” value [3] was 488.67 u/L and the LIPASE [3] was 10.67 u/L. For the same compound, the PHOSPHORUS [3] was 12.43 mg/dL, the POTASSIUM [3] was 6.92 MEQ/L and the SODIUM [3] was 145.43 MEQ/L. The “TOTAL BILIRUBIN” value [3] was 0.2 mg/dL, the “TOTAL PROTEIN” value [3] was 6.07 G/DL and the “URIC ACID” value [3] was 1.63 mg/dL. The “ABSOLUTE BASOPHIL” value [4] was 0 CELLS/uL, the “ABSOLUTE EOSINOPHIL” value [4] was 0 CELLS/uL and the “ABSOLUTE LYMPHOCYTE” value [4] was 14525.67 CELLS/uL. The “ABSOLUTE MONOCYTE” value [4] was 88 CELLS/uL, the “ABSOLUTE SEGMENTED NEUTROPHIL” value [4] was 1019.67 CELLS/uL and the BASOPHIL [4] was 0%. For the same compound, the EOSINOPHIL [4] was 0%, the “ERYTHROCYTE COUNT” value [4] was 4.62 x10E6/uL and the HEMATOCRIT [4] was 29.8%. For the same compound, the HEMOGLOBIN [4] was 12.13 G/DL, the “LEUKOCYTE COUNT” value [4] was 15.63 x10E3/uL and the LYMPHOCYTE [4] was 94%. The “MEAN CORPUSCULAR HEMOGLOBIN” value [4] was 26.43 pg, the “MEAN CORPUSCULAR HEMOGLOBIN CONCENTRATION” value [4] was 40.77 G/DL and the “MEAN CORPUSCULAR VOLUME” value [4] was 64.9 fL. The MONOCYTE [4] was 0.33%, the NEUTROPHIL [4] was 5.67% and the “NUCLEATED RED BLOOD CELLS” value [4] was 0 /100WBC. For the same compound, the “PLATELET COUNT” value [4] was 1090.33 x10E3/uL, the “ALANINE AMINOTRANSFERASE” value [4] was 53.33 u/L and the ALBUMIN [4] was 4.1 G/DL. The “ALKALINE PHOSPHATASE” value [4] was 272.5 u/L, the “ASPARTATE AMINOTRANSFERASE” value [4] was 97 u/L and the “BLOOD UREA NITROGEN” value [4] was 17 mg/dL. For the same compound, the “CARBON DIOXIDE” value [4] was 21 mmol/L, the CHLORIDE [4] was 107.5 MEQ/L and the CHOLESTEROL [4] was 73 mg/dL. The “CREATINE PHOSPHOKINASE” value [4] was 1048.33 u/L, the CREATININE [4] was 0.21 mg/dL and the GLUCOSE [4] was 149 mg/dL. For the same compound, the “LACTATE DEHYDROGENASE” value [4] was 184 u/L, the LIPASE [4] was 12 u/L and the PHOSPHORUS [4] was 10.23 mg/dL. For the same compound, the POTASSIUM [4] was 6.38 MEQ/L, the SODIUM [4] was 147.2 MEQ/L and the “TOTAL BILIRUBIN” value [4] was 0.2 mg/dL. The “TOTAL PROTEIN” value [4] was 5.97 G/DL and the “URIC ACID” value [4] was 1.2 mg/dL.
